Experimental data reported in US4822774A, “Physiologically active peptide” (Eisai Co., Ltd., priority 1986, dated 1989).

Tested on: Muscle of Bronchus Removed from Guinea Pig
Settings: guinea pig trachea, 6.5×10^-6 M histamine; samples at 10^-5 M; area value of VIP--NH2 taken as 100 %
Source text: A. Determination on Relaxation of Muscle of Bronchus Removed from Guinea Pig
The juglar vein of a male guinea pig weighing 300 g or more is cut, causing the guinea pig to be bled to death. The guinea pig undergoes thoracotomy. Immediately after the thoracotomy, 3 cm of the trachea is taken out. The trachea is immediately put in a Krebs solution. It is then cut into seven equal rings, and the cartilages are connected to one another with a cotton yarn to form a chain. Subsequently, the smooth muscle parts and cartilages opposite them are cut, so that the smooth muscle parts can be connected to one another. The preparation thus prepared is placed in an isothermic glass cell having an internal capacity of about 7 ml and suspended from above. The lower part of the preparation is fixed, while the upper part is connected to an isometric transducer, to which 0.5 g of a load has been applied, in order to determine the relaxation reaction. Sufficient amounts of 95 % oxygen and 5 % carbon dioxide gas are blown into the preparation. Further, a Krebs solution of 37° C. containing 6.5×10^-6 M histamine is dropped on the preparation from above at a flow rate of 3.3 ml/min. The relaxation reaction takes place to an extent proportional to the amount of a sample added to the dropped solution. By utilizing this relationship, the relaxation activity against bronchial smooth muscle with respect to the substance of the present invention is compared with that of VIP--NH2. VIP--NH2 is used at a concentration of 10^-5 M and dropped in amounts of 40 μl and 80 μl. The substance of the present invention is also used at a concentration of 10^- 5 M and dropped in amounts of 10 μl and 20 μl. The value of the area (height×time) in relaxation of each case is determined. The specific activities are obtained by taking the area value of VIP--NH2 as 100 % and determining the relative ratio of the area value of each use. Thus, the relaxation reactions are compared by the four-point assay method, with respect to the above-mentioned determination method, reference may be made to the following articles (e) and (f): […]

Row | SMILES | A: specific activity (%) obtained by method A (relaxation of bronchial smooth muscle, area value relative to VIP-NH2) [%]
1 | CC[C@H](C)[C@H](NC(=O)[C@H](CO)NC(=O)[C@H](CC(N)=O)NC(=O)[C@H](CC(C)C)NC(=O)[C@H](Cc1ccc(O)cc1)NC(=O)[C@H](CCCCN)NC(=O)[C@H](CCCCN)NC(=O)[C@@H](NC(=O)[C@H](C)NC(=O)[C@H](CCSC)NC(=O)[C@H](CCC(N)=O)NC(=O)[C@H](CCCCN)NC(=O)[C@H](CCCNC(=N)N)NC(=O)[C@H](CC(C)C)NC(=O)[C@H](CCCNC(=N)N)NC(=O)[C@@H](NC(=O)[C@H](Cc1ccc(O)cc1)NC(=O)[C@H](CC(N)=O)NC(=O)[C@H](CC(=O)O)NC(=O)[C@@H](NC(=O)[C@H](Cc1ccccc1)NC(=O)[C@@H](NC(=O)[C@H](C)NC(=O)[C@H](CC(=O)O)NC(=O)[C@H](CO)NC(=O)[C@@H](N)Cc1c[nH]cn1)C(C)C)[C@@H](C)O)[C@@H](C)O)C(C)C)C(=O)N[C@@H](CC(C)C)C(=O)N[C@@H](CC(N)=O)C(=O)NCC(=O)N[C@@H](CCCCN)C(=O)O [X=Met Y=Lys--OH] | 300
2 | CC[C@H](C)[C@H](NC(=O)[C@H](CO)NC(=O)[C@H](CC(N)=O)NC(=O)[C@H](CC(C)C)NC(=O)[C@H](Cc1ccc(O)cc1)NC(=O)[C@H](CCCCN)NC(=O)[C@H](CCCCN)NC(=O)[C@@H](NC(=O)[C@H](C)NC(=O)[C@H](CCSC)NC(=O)[C@H](CCC(N)=O)NC(=O)[C@H](CCCCN)NC(=O)[C@H](CCCNC(=N)N)NC(=O)[C@H](CC(C)C)NC(=O)[C@H](CCCNC(=N)N)NC(=O)[C@@H](NC(=O)[C@H](Cc1ccc(O)cc1)NC(=O)[C@H](CC(N)=O)NC(=O)[C@H](CC(=O)O)NC(=O)[C@@H](NC(=O)[C@H](Cc1ccccc1)NC(=O)[C@@H](NC(=O)[C@H](C)NC(=O)[C@H](CC(=O)O)NC(=O)[C@H](CO)NC(=O)[C@@H](N)Cc1c[nH]cn1)C(C)C)[C@@H](C)O)[C@@H](C)O)C(C)C)C(=O)N[C@@H](CC(C)C)C(=O)N[C@@H](CC(N)=O)C(N)=O [VIP - NH2] | 100
3 | CC[C@H](C)[C@H](NC(=O)[C@H](CO)NC(=O)[C@H](CC(N)=O)NC(=O)[C@H](CC(C)C)NC(=O)[C@H](Cc1ccc(O)cc1)NC(=O)[C@H](CCCCN)NC(=O)[C@H](CCCCN)NC(=O)[C@@H](NC(=O)[C@H](C)NC(=O)[C@H](CCSC)NC(=O)[C@H](CCC(N)=O)NC(=O)[C@H](CCCCN)NC(=O)[C@H](CCCNC(=N)N)NC(=O)[C@H](CC(C)C)NC(=O)[C@H](CCCNC(=N)N)NC(=O)[C@@H](NC(=O)[C@H](Cc1ccc(O)cc1)NC(=O)[C@H](CC(N)=O)NC(=O)[C@H](CC(=O)O)NC(=O)[C@@H](NC(=O)[C@H](Cc1ccccc1)NC(=O)[C@@H](NC(=O)[C@H](C)NC(=O)[C@H](CC(=O)O)NC(=O)[C@H](CO)NC(=O)[C@@H](N)Cc1c[nH]cn1)C(C)C)[C@@H](C)O)[C@@H](C)O)C(C)C)C(=O)N[C@@H](CC(C)C)C(=O)N[C@@H](CC(N)=O)C(=O)O [VIP - OH] | 60
